Data reported in patent publication US9115079B2, “NDM inhibitor” (priority 2011, dated 2015).
pIC50: −log10 of the molar value. Structures can show the parent of a compound that is named as a salt.

Molecular target: NDM-1 (Klebsiella pneumoniae, UniProt C7C422)
Test: biochemical
Conditions: NDM-1 2.5 nM, 100 μM imipenem as substrate, 100 μM ZnSO4, pH 7.5, 30° C.
Experimental: Amplification was carried out by a polymerase chain reaction (PCR) with Pyrobest DNA polymerase (Takara Bio) in which a plasmid having an NDM-1 gene sequence (GenBank Accession number: FN396876) synthesized by Life Technologies Japan Ltd. (consignment synthesis) was used as a template and two primers ([…] and […]) were used. The amplified DNA fragments were digested with restriction enzymes Nco I and Xho I and were incorporated in a vector pET-28a(+) to acquire a recombinant plasmid. The plasmid was transformed into E. coli BL21(DE3) (Novagen), and the transformants thus obtained were grown to an absorbance at 600 nm of about 0.7 in 0.8 L of an SB medium (1.2% (w/v) bacto tryptone, 2.4% (w/v) yeast extract, 0.5% (v/v) glycerol, 0.072 M dipotassium hydrogenphosphate, and 0.028 M potassium dihydrogenphosphate) containing 30 μg/ml kanamycin. Isopropyl-β-D-thiogalactopyranoside was added to a final concentration of 1 mM, and induction was carried out at 20° C. overnight, followed by harvesting with a centrifuge.
50 mM HEPES (pH 7.5), 20 μg/ml BSA, 100 μM ZnSO4, 2% DMSO, and 100 μM imipenem as a substrate (these concentrations being final concentration) were added into a 1 ml quartz cell. […] A plurality of inhibitor concentrations were studied, a sigmoid curve was prepared from each inhibitory activity, and IC50 values were calculated.

Chain of NDM-1 (C7C422 29-270, looked up): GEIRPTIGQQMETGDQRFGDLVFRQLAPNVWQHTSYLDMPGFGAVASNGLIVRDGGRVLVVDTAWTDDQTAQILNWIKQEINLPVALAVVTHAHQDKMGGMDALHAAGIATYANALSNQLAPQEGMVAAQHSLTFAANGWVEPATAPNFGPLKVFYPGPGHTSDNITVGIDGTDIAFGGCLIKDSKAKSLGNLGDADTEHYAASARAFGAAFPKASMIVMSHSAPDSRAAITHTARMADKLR

| Compound | pIC50 |
| --- | --- |
| CCC/C(C(=O)O)=C(\CCC)C(=O)O [Example 2, Disodium 2,3-di-n-propylmaleate] | 4.52 to 5.00 |
| CC/C(C(=O)O)=C(\Cc1ccccc1)C(=O)O [Example 4, Disodium 2-benzyl-3-ethylmaleate] | 4.52 to 5.00 |
| C/C(C(=O)O)=C(/C(=O)O)C(C)C [Example 9, Disodium 2-isopropyl-3-methylmaleate] | 4.00 to 4.52 |
| CC/C(C(=O)O)=C(/C(=O)O)C(C)C [Example 10, Disodium 3-ethyl-2-isopropylmaleate] | 4.52 to 5.00 |
| CC(C)/C(C(=O)O)=C(/C(=O)O)C(C)C [Example 11, Disodium 2,3-diisopropylmaleate] | 4.52 to 5.00 |
| CC(C)/C(C(=O)O)=C(\Cc1ccccc1)C(=O)O [Example 12, Disodium 3-benzyl-2-isopropylmaleate] | 4.52 to 5.00 |
| Cc1ccccc1C/C(C(=O)O)=C(/C(=O)O)C(C)C [Example 13, Disodium 2-isopropyl-3-(2-methylphenyl)methylmaleate] | 4.52 to 5.00 |
| CC(C)/C(C(=O)O)=C(/C(=O)O)C1CCOCC1 [Example 22, Disodium 3-isopropyl-2-(tetrahydropyran-4-yl)maleate] | 4.52 to 5.00 |
| CC(C)/C(C(=O)O)=C(\Cc1cccnc1)C(=O)O [Example 23, Disodium 2-isopropyl-3-[(pyridine-3-yl)methyl]maleate] | 4.00 to 4.52 |
| CC/C(C(=O)O)=C(\SC(C)C)C(=O)O [Example 24, Disodium 3-ethyl-2-isopropylthiomaleate] | 4.00 to 4.52 |
| CC(C)/C(C(=O)O)=C(\Cc1ccc(C(=O)O)cc1)C(=O)O [Example 25, Trisodium 2-(4-carboxybenzyl)-3-isopropylmaleate] | 4.52 to 5.00 |
| CC(C)/C(C(=O)O)=C(\Cc1ccc(C(N)=O)cc1)C(=O)O [Example 26, Disodium 2-(4-carbamoylbenzyl)-3-isopropylmaleate] | 4.52 to 5.00 |
| CC(C)/C(C(=O)O)=C(\Cc1ccc(C(=O)N2CCOCC2)cc1)C(=O)O [Example 27, Disodium 2-isopropyl-3-[4-(morpholine-1-carbonyl)benzyl]maleate] | 4.52 to 5.00 |
| CC(C)/C(C(=O)O)=C(\Cc1ccc(C(=O)N2CCC(O)CC2)cc1)C(=O)O [Example 28, Disodium 2-[4-(4-hydroxypiperidine-1-carbonyl)benzyl]-3-isopropylmaleate] | 4.00 to 4.52 |
| CC(C)/C(C(=O)O)=C(\Cc1ccc(O)cc1)C(=O)O [Example 31, Trisodium 2-(4-oxidobenzyl)-3-isopropylmaleate] | 4.52 to 5.00 |
| CC(C)/C(C(=O)O)=C(\Cc1ccc(OCCN)cc1)C(=O)O [Example 34, Disodium 2-[4-(2-aminoethoxy)benzyl]-3-isopropylmaleate] | > 5.00 |
| CC(C)/C(C(=O)O)=C(\Cc1ccc(OCCn2ccnc2)cc1)C(=O)O [Example 35, Disodium 2-{4-[2-(1H-imidazol-1-yl)ethoxy]benzyl}-3-isopropylmaleate] | > 5.00 |
| CC(C)/C(C(=O)O)=C(\Cc1ccc(OC2CCNC2)cc1)C(=O)O (stereo not shown) [Example 36, Disodium 2-isopropyl-3-[4-(pyrrolidin-3-yloxy)benzyl]maleate] | > 5.00 |
| CC(C)/C(C(=O)O)=C(\Cc1ccc(OCCNC(=N)N)cc1)C(=O)O [Example 37, Disodium 2-[4-(2-guanidinoethoxy)benzyl]-3-isopropyl maleate] | 4.00 to 4.52 |
| O=C(O)/C(=C(\C(=O)O)[C@H]1CC[C@@H](O)CC1)C1CCCC1 [Example 38, Disodium 2-cyclopentyl-3-(cis-4-hydroxycyclohexyl)maleate] | > 5.00 |
| O=C(O)/C(=C(\C(=O)O)[C@H]1CC[C@@H](O)CC1)[C@H]1CC[C@@H](O)CC1 [Example 39, Disodium 2,3-bis(cis-4-hydroxycyclohexyl)maleate] | > 5.00 |
| O=C(O)/C(=C(\C(=O)O)C1CCOCC1)C1CCOCC1 [Example 40, Disodium 2,3-bis(tetrahydro-2H-pyran-4-yl)maleate] | 4.00 to 4.52 |

Next, values leading:

| pIC50 | Compound |
| --- | --- |
| > 5.00 | CC/C(C(=O)O)=C(\Cc1ccc(O)cc1)C(=O)O [Example 5, Disodium 3-ethyl-2-(4-hydroxybenzyl)maleate] |
| > 5.00 | O=C(O)/C(Cc1ccccc1)=C(/Cc1ccccc1)C(=O)O [Example 6, Disodium 2,3-dibenzylmaleate] |
| > 5.00 | O=C(O)/C(CCc1ccccc1)=C(/Cc1ccccc1)C(=O)O [Example 7, Disodium 2-benzyl-3-phenethylmaleate] |
| > 5.00 | O=C(O)/C(CCc1ccccc1)=C(/CCc1ccccc1)C(=O)O [Example 8, Disodium 2,3-diphenethylmaleate] |
| > 5.00 | CC/C(C(=O)O)=C(/C(=O)O)C1CCCC1 [Example 14, Disodium 2-cyclopentyl-3-ethylmaleate] |
| > 5.00 | CC(C)/C(C(=O)O)=C(/C(=O)O)C1CCCC1 [Example 15, Disodium 2-cyclopentyl-3-isopropylmaleate] |
| > 5.00 | O=C(O)/C(Cc1ccccc1)=C(\C(=O)O)C1CCCC1 [Example 16, Disodium 3-benzyl-2-cyclopentylmaleate] |
| > 5.00 | O=C(O)/C(=C(\C(=O)O)C1CCCC1)C1CCCC1 [Example 17, Disodium 2,3-dicyclopentylmaleate] |
| > 5.00 | CC(C)/C(C(=O)O)=C(/C(=O)O)C1Cc2ccccc2C1 [Example 18, Disodium 2-(2,3-dihydro-1H-inden-2-yl)-3-isopropylmaleate] |
| > 5.00 | CC(C)/C(C(=O)O)=C(/C(=O)O)C1CCCCC1 [Example 19, Disodium 2-cyclohexyl-3-isopropylmaleate] |
| > 5.00 | CC(C)/C(C(=O)O)=C(/C(=O)O)[C@H]1CC[C@@H](O)CC1 [Example 21, Disodium 2-(cis-4-hydroxycyclohexyl)-3-isopropylmaleate] |
| > 5.00 | CC(C)/C(C(=O)O)=C(\Cc1ccc(C(=O)NCC(N)=O)cc1)C(=O)O [Example 29, Disodium 2-[4-(2-amino-2-oxoethylcarbamoyl)benzyl]-3-isopropylmaleate] |
| > 5.00 | COc1ccc(C/C(C(=O)O)=C(/C(=O)O)C(C)C)cc1 [Example 30, Disodium 2-isopropyl-3-(4-methoxybenzyl)maleate] |
| > 5.00 | CC(C)/C(C(=O)O)=C(\Cc1ccc(OCC(=O)O)cc1)C(=O)O [Example 32] |
| > 5.00 | CC(C)/C(C(=O)O)=C(\Cc1ccc(OCC(N)=O)cc1)C(=O)O [Example 33, Disodium 2-[4-(2-amino-2-oxoethoxy)benzyl]-3-isopropylmaleate] |
